Experimental data taken from patent US20040087629A1, “Tartrate salts of thiazolidinedione derivative” (priority 2003, published 2004).
Where two headings read alike, the source gives them in different places.

Conditions: 1 month, product of Example 4

For `CN(CCOc1ccc(CC2SC(=O)NC2=O)cc1)c1ccccn1.O=C(O)C(O)C(O)C(=O)O` [L(+) Tartrate, 5-[4-[2-(N-methyl-N-(2-pyridyl)amino)ethoxy]benzyl]thiazolidine-2,4-dione L-(+)-tartrate], the “HPLC assay (final content)” value (40° C./75% Relative Humidity (RH), open exposure) was 97 % initial and the “HPLC assay (final content)” value (50° C., closed) was 98 % initial.
